Data taken from patent US12692274B2, “Tetrahydroisoquinoline derivatives for the treatment of red blood disorders and inflammatory diseases” (Sanofi, priority 2020, dated 2026).
pEC50, pIC50: −log10 of the molar value. Where “and” joins values, the source holds several entries; their conditions need not be identical. Identical values can stand only once.

How the values were obtained:
[1] = target: HIS-Keap1 full length / Biotin-Nrf2 (16-mer) (Homo sapiens, UniProt Q14145); assay: biochemical
[2] = test system: NQO1 activation in BEAS-2B cells; assay: BEAS-2B cellular MTT assay of NQO1 activation, 0.3% HSA; assay type: cell-based
Outline: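 MTT read-out in BEAS-2B cells grown in BEBM with SingleQuots, no GA-1000, kept below 70% confluence; plates coated with collagen, with 0.3% or 0% HSA medium, seeded to 95-100% confluency at 48 h, 37 °C, 5% CO2.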

[3] = test system: NQO1 activation in BEAS-2B cells; assay: BEAS-2B cellular MTT assay of NQO1 activation, 0% HSA; assay type: cell-based
Outline: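 For the 0% HSA condition, cells were seeded into collagen plates in HSA-free medium. Culture was BEAS-2B in BEBM plus BEGM SingleQuots lacking GA-1000, held under 70% confluence, at a seeding density reaching 95-100% confluence by 48 h.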

[4] = Homo sapiens, BEAS+, read-out: BEAS+ EC50
[5] = Homo sapiens, serum free, read-out: BEAS EC50 (nM) serum free
[6] = serum free, read-out: BEAS EC50 (nM) serum free
[7] = BEAS+ W, read-out: BEAS+ W EC50
[8] = Homo sapiens, BEAS+ W, read-out: BEAS+ W EC50
[9] = Homo sapiens, Serum Free W, read-out: BEAS EC50 (nM) Serum Free W
[10] = Serum Free W, read-out: BEAS EC50 (nM) Serum Free W

HIS-Keap1 full length / Biotin-Nrf2 (16-mer), sequence (Q14145 whole entry): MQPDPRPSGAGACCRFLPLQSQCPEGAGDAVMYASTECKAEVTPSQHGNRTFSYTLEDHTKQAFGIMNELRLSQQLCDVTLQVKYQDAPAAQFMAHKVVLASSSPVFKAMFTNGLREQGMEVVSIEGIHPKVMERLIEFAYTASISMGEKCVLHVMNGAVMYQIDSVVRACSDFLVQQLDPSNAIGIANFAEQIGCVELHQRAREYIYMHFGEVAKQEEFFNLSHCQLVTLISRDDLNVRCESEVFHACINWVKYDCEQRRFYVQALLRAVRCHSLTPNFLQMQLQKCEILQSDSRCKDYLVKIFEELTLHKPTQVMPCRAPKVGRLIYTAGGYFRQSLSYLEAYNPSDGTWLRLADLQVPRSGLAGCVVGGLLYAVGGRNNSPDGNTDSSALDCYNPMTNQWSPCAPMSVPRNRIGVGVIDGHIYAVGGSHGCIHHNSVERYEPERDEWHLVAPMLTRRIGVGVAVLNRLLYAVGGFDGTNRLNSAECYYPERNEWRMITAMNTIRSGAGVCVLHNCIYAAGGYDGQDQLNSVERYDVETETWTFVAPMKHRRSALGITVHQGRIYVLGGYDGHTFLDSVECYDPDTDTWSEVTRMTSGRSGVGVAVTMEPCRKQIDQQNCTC

With `Cc1c2cnc3c1nnn3CCCCCCc1ccc(cc1)C(=O)N1CCc3ccc(cc3C1)[C@H]2CC(=O)O` [Compound 140] the pIC50 [1] was 9.52 and 9.30, the pEC50 ([2]; BEAS+, read-out: BEAS+ EC50) was 7.56 and the pEC50 [2, 4] was 7.52. For the same compound, the EC50 [3, 5] was 11.6 nM and the EC50 [3, 6] was 8.8 nM.
Compound `Cc1c2ccc3c1nnn3CCCCCCc1ccc(cc1)C(=O)N1CCc3ccc(cc3C1)[C@@H]2[C@H](C)C(=O)O` (racemic) [Compound 200] has a pIC50 [1] of 7.06, a pEC50 ([2]; BEAS+, read-out: BEAS+ EC50) of 8.03 and a pEC50 [2, 4] of 8.02. For the same compound, the EC50 [3, 5] was 3.4 nM and the EC50 [3, 6] was 6.5 nM.
With `COc1cc2ccc1C(=O)N1CCc3ccc(cc3C1)C(CC(=O)O)c1ccc3c(nnn3CCCCC2)c1C` (stereo not drawn) [Compound 191] the pIC50 [1] was 7.71 and 7.69, the pEC50 ([2]; BEAS+, read-out: BEAS+ EC50) was 7.74 and the pEC50 [2, 4] was 7.69. It also gave an EC50 [3, 5] of 11.4 nM and an EC50 [3, 6] of 18 nM.
`Cc1c2cnc3c1nnn3CCCCCCOc1cc(F)c(c(F)c1)C(=O)N1CCc3ccc(cc3C1)C2CC(=O)O` (stereo not drawn) [Compound 128] was tested, and the pIC50 [1] was 9.00 and 8.85, the pEC50 [2, 7] was 7.33 and the pEC50 ([2]; BEAS+, read-out: BEAS+ EC50) was 7.69. The pEC50 [2, 8] was 7.51, the pEC50 [2, 4] was 7.75 and the EC50 [3, 9] was 9.8 nM. The EC50 [3, 5] was 14.2 nM, the EC50 [3, 10] was 7.1 nM and the EC50 [3, 6] was 12.2 nM.
With `Cc1c2n(C)c3ccc(cc13)C/C=C\CCCn1nnc3c(C)c(cnc31)[C@@H](CC(=O)O)c1ccc3c(c1)CN(CC3)C2=O` [Compound 65] the pIC50 [1] was 8.82 and 8.80, the pEC50 [2, 7] was 7.62 and the pEC50 [2, 8] was 7.74. The EC50 [3, 9] was 3.7 nM and the EC50 [3, 10] was 2.7 nM.
For `Cc1c2cnc3c1nnn3CCCCCCOc1cc(F)c(c(F)c1)C(=O)N1CCc3ccc(cc3C1)[C@@H]2CC(=O)O` [Compound 207], the pIC50 [1] was 8.85, the pEC50 [2, 7] was 7.24 and the pEC50 [2, 8] was 7.18. It also gave an EC50 [3, 9] of 23.7 nM and an EC50 [3, 10] of 32.1 nM.
`Cc1cc2ncc1[C@@H](CC(=O)O)c1ccc3c(c1)CN(CC3)C(=O)c1ccc(cc1)CCOCCO2` [Compound 351] was tested, and the pIC50 [1] was 6.19 and 6.21 and 6.40 and 6.38, the pEC50 [2, 7] was 5.54 and 5.55 and the pEC50 [2, 8] was 5.43. For the same compound, the EC50 [3, 9] was > 1000 nM and the EC50 [3, 10] was 1780 nM.
With `O=C(O)CC1c2ccc3c(c2)CN(CC3)C(=O)c2ccc(c3ccccc23)OCCCCCn2nnc3cc1ccc32` (stereo not drawn) [Compound 337] the pIC50 [1] was 9.15 and 9.10, the pEC50 [2, 4] was 5.60 and the EC50 [3, 5] was 1890 nM.
In the case of `Cc1c2ccc3c1nnn3CCCCCc1ccc(c(F)c1)C(=O)N1CCc3ccc(cc3C1)C2CC(=O)O` (stereo not drawn) [Compound 266], the pIC50 [1] was 9.30, the pEC50 [2, 4] was 8.59 and the EC50 [3, 5] was 2.1 nM.
With `Cc1cc2ccc1C(=O)N1CCc3ccc(cc3C1)C(CC(=O)O)c1ccc(nc1)OCCCCCCO2` (stereo not drawn) [Compound 301] the pIC50 [1] was 8.17 and 8.22, the pEC50 ([2]; BEAS+, read-out: BEAS+ EC50) was 6.67 and the pEC50 [2, 4] was 6.50. It also gave an EC50 [3, 5] of 80.6 nM and an EC50 [3, 6] of 144 nM.
`O=C(O)CC1c2ccc(nc2)OCCCCCc2cc(F)c(c(F)c2)C(=O)N2CCc3ccc1cc3C2` (stereo not drawn) [Compound 187] was tested, and the pIC50 [1] was 8.23 and 8.25, the pEC50 ([2]; BEAS+, read-out: BEAS+ EC50) was 7.72 and the pEC50 [2, 4] was 7.66. It also gave an EC50 [3, 5] of 9.3 nM and an EC50 [3, 6] of 8.9 nM.
With `Cc1c2ccc3c1nnn3CCCCCCOc1ccc(c3ccccc13)C(=O)N1CCc3ccc(cc3C1)C2CC(=O)O` (stereo not drawn) [Compound 284] the pIC50 [1] was 9.40 and 9.52, the pEC50 [2, 4] was 7.64 and the EC50 [3, 5] was 3.4 nM.
For `O=C(O)CC1c2ccc(nc2)OCCCCOc2cc(F)c(c(F)c2)C(=O)N2CCc3ccc1cc3C2` (stereo not drawn) [Compound 210], the pIC50 [1] was 8.43 and 8.40, the pEC50 ([2]; BEAS+, read-out: BEAS+ EC50) was 6.07 and the pEC50 [2, 4] was 5.99. For the same compound, the EC50 [3, 5] was 482 nM and the EC50 [3, 6] was 475 nM.
`O=C(O)C[C@H]1c2ccc(nc2)OCCCCCc2ccc(cc2)C(=O)N2CCc3ccc1cc3C2` [Compound 172] was tested, and the pIC50 [1] was 6.67 and 6.64, the pEC50 ([2]; BEAS+, read-out: BEAS+ EC50) was 6.58 and the pEC50 [2, 4] was 6.73. It also gave an EC50 [3, 5] of 79.2 nM and an EC50 [3, 6] of 73 nM.
`COc1cc2ccc1C(=O)N1CCc3ccc(cc3C1)[C@H](CC(=O)O)c1cnc3c(nnn3CCCCC2)c1C` [Compound 89] was tested, and the pIC50 [1] was 9.10 and 9.05, the pEC50 [2, 7] was 7.31 and the pEC50 [2, 8] was 7.41. The EC50 [3, 9] was 30.6 nM and the EC50 [3, 10] was 22.8 nM.
`Cc1c2ccc3c1nnn3CCCCCCc1ccc(cc1)C(=O)N1CCc3ccc(cc3C1)C2CC(=O)O` (stereo not drawn) [Compound 307] showed a pIC50 [1] of 9.70, a pEC50 ([2]; BEAS+, read-out: BEAS+ EC50) of 8.28 and a pEC50 [2, 4] of 8.43. The EC50 [3, 5] was 0.4 nM.
For `Cc1c2ccc3c1nnn3CCCCCOc1ccc(c(F)c1)C(=O)N1CCc3ccc(cc3C1)[C@H]2CC(=O)O` [Compound 259], the pIC50 [1] was 8.39, the pEC50 ([2]; BEAS+, read-out: BEAS+ EC50) was 7.11 and the pEC50 [2, 4] was 7.32. For the same compound, the EC50 [3, 5] was 20.2 nM and the EC50 [3, 6] was 18.7 nM.
In the case of `Cc1c2ccc3c1nnn3CCCCCCc1ccc(c(F)c1)C(=O)N1CCc3ccc(cc3C1)[C@@H]2[C@@H](C)C(=O)O` [Compound 167], the pIC50 [1] was 7.91 and 7.85, the pEC50 [2, 7] was 6.88 and the pEC50 [2, 8] was 6.99. The EC50 [3, 9] was 34.7 nM and the EC50 [3, 10] was 36.6 nM.
With `O=C(O)CC1c2ccc3c(c2)CN(CC3)C(=O)c2ccc(c(F)c2F)OCCCCCCn2nnc3cc1ccc32` (stereo not drawn) [Compound 320] the pIC50 [1] was > 10.00, the pEC50 [2, 4] was 6.34 and the EC50 [3, 5] was 332 nM.
